Data as given in US8703723B2, “Glycoside compounds and pharmaceutical compositions thereof” (Centrose, LLC, priority 2009, dated 2014).
Like-named read-outs stand apart in the source and are kept apart here.

Tests used:
[1] = system: SKOV3 (Ovarian) cell line; conditions: footnote 2: data from Langenhan et al. 2005; cited from earlier work
[2] = system: NCI-H460 (NSCLC) cell line; conditions: footnote 2: data from Langenhan et al. 2005; cited from earlier work
A549 (NSCLC) cell line [3] = conditions: footnote 2: data from Langenhan et al. 2005; cited from earlier work
[4] = system: HT29 (Colorectal) cell line; assay: Cancer cell cytotoxicity assay (Calcein AM / Cell Titer-Glo), HT29; type: cell-based, human
Method: (§1) Compounds of the invention and comparative compounds were assayed in three cancer cell lines to confirm cytotoxic activity and to set a range of concentrations to use in subsequent assays. All cell lines were maintained in RPMI medium 1640 supplemented with 10% (wt/vol) fetal bovine serum and penicillin-streptomycin (100 units/ml and 100 μg/ml). Cells were routinely checked for microbial or mycoplasma contamination and if necessary replaced. Cells were harvested by trypsinization using 0.25% trypsin and 0.1% EDTA and then counted in a ViCell XR coulter counter in duplicate, before and after dilution for assay plating. Between four to nine different types of human cancer cells were plated at a density of 10,000-15,000 cells per well of each 96-well black tissue culture treated microtiter plate, then were grown for 1 hour at 37° C. with 5% CO2/95% air in a humidified incubator to allow cells to attach before compound addition. Compound stocks (100×) were prepared in 96-well V-bottom polypropylene microtiter plates. Five serial (1:2) dilutions were made with anhydrous DMSO at 100× the final concentration used in the assay. The individual wells in compound-containing […] well plates were diluted 1:10 with complete cell culture medium and the 10× (10 μL) stocks were added to 90 μl of cells in each plate to ensure full mixing of stocks with culture media by using a Biomek FX liquid handler with 96-well head. Doxorubicin was used as the control to monitor the behavior of each cell line. Cells were incubated with the compounds for 3 to 4 days before fluorescence and luminescence reading. Test plates were removed from the incubator and washed once in sterile PBS to remove serum containing calcium esterases. Calcein AM (acetoxymethyl ester) reagent was added and the cells were incubated for 30 min at 37° C. Plates were read for emission by using a fluorescein filter (excitation 485 nm, emission 535 nm). An equal volume (30 μL) of Cell Titer-Glo reagent (Promega Corporation, Inc.) was added and incubated for 10 min at room temperature with gentle agitation to lyse the cells. Each plate was re-read for luminescence to confirm the inhibition observed in the fluorescent […] assay as a measure of cell viability. The cancer cell cytotoxicity assays were run in triplicate using ≧5 different drug concentrations, and the data were analyzed to establish statistical significance and a valid IC50 value for inhibition of cell growth, based on ≧2 log differences in drug effect.
(§2) The cancer cell cytotoxicities (determined substantially according to the method of Example 5) of various compounds of the invention and comparative compounds as determined in four to five different human cancer cell lines are shown in Table 1. The structures of the compounds listed are found in FIGS. 2-4.

[5] = system: NCI-H460 (NSCLC) cell line; assay: Cancer cell cytotoxicity assay (Calcein AM / Cell Titer-Glo), NCI-H460; type: cell-based, human
Method: as §1, §2

A549 (NSCLC) cell line [6] = assay: Cancer cell cytotoxicity assay (Calcein AM / Cell Titer-Glo), A549; type: cell-based, human
Method: as §1, §2

H1299 (NSCLC) cell line = assay: Cancer cell cytotoxicity assay (Calcein AM / Cell Titer-Glo), H1299; type: cell-based, human
Method: as §1, §2

[7] = system: SKOV3 (Ovarian) cell line; assay: Cancer cell cytotoxicity assay (Calcein AM / Cell Titer-Glo), SKOV3; type: cell-based, human
Method: as §1, §2

human cancer cell lines = assay: Cancer cell cytotoxicity, summary over four to five human cancer cell lines; type: cell-based; conditions: read-out: IC50 values (cancer cell cytotoxicity)
Method: as §1, §2

[8] = Colorectal, footnote 3: determined at same time as CEN07-117 and -121
[9] = Colorectal, footnote 5: determined at same time as CEN08-193
[10] = Colorectal, footnote 7: determined at same time as CEN08-180
[11] = NSCLC, footnote 3: determined at same time as CEN07-117 and -121
[12] = NSCLC, footnote 5: determined at same time as CEN08-193
[13] = NSCLC, footnote 7: determined at same time as CEN08-180
[14] = Ovarian, footnote 5: determined at same time as CEN08-193
[15] = Ovarian, footnote 7: determined at same time as CEN08-180
[16] = NSCLC, footnote 4: determined at same time as CEN08-177 and -178
[17] = NSCLC, footnote 6: determined at same time as CEN08-243 and -244

Structure (SMILES) | IC50 [1] [nM] | IC50 [2] [nM] | IC50 (A549 (NSCLC) cell line [3]) [nM] | IC50 [4, 8] [nM] | IC50 [4, 9] [nM] | IC50 [4, 10] [nM] | IC50 [5, 11] [nM] | IC50 [5, 12] [nM] | IC50 [5, 13] [nM] | IC50 (A549 (NSCLC) cell line [6]; [11]) [nM] | IC50 (A549 (NSCLC) cell line [6]; [12]) [nM] | IC50 (A549 (NSCLC) cell line [6]; [13]) [nM] | IC50 (H1299 (NSCLC) cell line; NSCLC, assay set not specified) [nM] | IC50 (H1299 (NSCLC) cell line; [11]) [nM] | IC50 (H1299 (NSCLC) cell line; [12]) [nM] | IC50 [7, 14] [nM] | IC50 [7, 15] [nM] | IC50 (human cancer cell lines) [nM] | further results
CON[C@H]1CC[C@@]2(C)[C@H](CC[C@@H]3[C@@H]2CC[C@]2(C)[C@@H](C4=CC(=O)OC4)CC[C@]32O)C1 [(3β)-3-N-methoxyaminodigitoxigenin] | 3000 | 2400 | 8300 | – | – | – | – | – | – | – | – | – | – | – | – | – | – | – | –
CON(C1CCC2(C)C(CCC3C2CCC2(C)C(C4=CC(=O)OC4)CCC32O)C1)C1OCC(O)C(O)C1O [CEN07-W-101 (23S), reference compound] | 220 | 80 | 79 | 100 | 9 | 46 | 150 | 8 | 37 | 50 | 4 | 9 | 17 | 170 | 6 | 39 | 51 | – | –
CON(C1CCC2(C)C(CCC3C2CCC2(C)C(C4=CC(=O)OC4)CCC32O)C1)C1OCC(O)C(O)C1O [CEN07-W-102 (5S), reference compound] | 45 | 53 | 33 | 120 | 7 | 33 | 110 | 5 | 24 | 40 | 3 | 8 | 9 | 110 | 6 | 26 | 36 | – | IC50 ([4]; Colorectal, assay set not specified): 20 nM; IC50 [5, 16]: 10 nM; IC50 [5, 17]: 15 nM; IC50 (A549 (NSCLC) cell line [6]; [16]): 10 nM; IC50 (A549 (NSCLC) cell line [6]; [17]): 17 nM; IC50 (H1299 (NSCLC) cell line; [16]): 20 nM; IC50 (H1299 (NSCLC) cell line; [17]): 20 nM; IC50 ([7]; Ovarian, assay set not specified): 310 nM; IC50 ([7]; Ovarian, footnote 4: determined at same time as CEN08-177 and -178): 40 nM; IC50 ([7]; Ovarian, footnote 6: determined at same time as CEN08-243 and -244): 25 nM
C[C@]12CC[C@H](O[C@H]3OC[C@H](O)[C@@H](O)C3O)C[C@H]1CCC1C2CC[C@]2(C)[C@@H](C3=CC(=O)OC3)CC[C@]12O (stereo partly drawn) [CEN08-178, 3-O-digitoxigenin-L-riboside] | – | – | – | – | – | – | – | – | – | – | – | – | – | – | – | – | – | < 80 | IC50 ([4]; Homo sapiens, HT-29, Colorectal, footnote 4: determined at same time as CEN08-177 and -178): 70 nM; IC50 ([5]; Homo sapiens, NCI-H460, NSCLC, footnote 4: determined at same time as CEN08-177 and -178): 20 nM; IC50 (A549 (NSCLC) cell line [6]; Homo sapiens, A549, NSCLC, footnote 4: determined at same time as CEN08-177 and -178): 20 nM; IC50 (H1299 (NSCLC) cell line; Homo sapiens, NCI-H1299, NSCLC, footnote 4: determined at same time as CEN08-177 and -178): 50 nM; IC50 ([7]; Homo sapiens, SK-OV-3, Ovarian, footnote 4: determined at same time as CEN08-177 and -178): 80 nM
C[C@]12CCC(OC3OC[C@H](O)[C@@H](O)[C@@H]3O)C[C@H]1CCC1C2CC[C@]2(C)[C@@H](C3=CCOC3=O)CC[C@]12O (some centres unmarked) [CEN08-193] | – | – | – | – | – | – | – | – | – | – | – | – | – | – | – | – | – | < 80 | IC50 ([4]; Homo sapiens, HT-29, Colorectal, footnote 5: determined at same time as CEN08-193): 11 nM; IC50 ([5]; Homo sapiens, NCI-H460, NSCLC, footnote 5: determined at same time as CEN08-193): 9 nM; IC50 (A549 (NSCLC) cell line [6]; Homo sapiens, A549, NSCLC, footnote 5: determined at same time as CEN08-193): 4 nM; IC50 (H1299 (NSCLC) cell line; Homo sapiens, NCI-H1299, NSCLC, footnote 5: determined at same time as CEN08-193): 6 nM; IC50 ([7]; Homo sapiens, SK-OV-3, Ovarian, footnote 5: determined at same time as CEN08-193): 51 nM
C[C@H]1O[C@@H](O[C@H]2[C@@H](O)C[C@H](O[C@H]3[C@@H](O)C[C@H](O[C@H]4CC[C@@]5(C)[C@H](CC[C@@H]6[C@@H]5CC[C@]5(C)[C@@H](C7=CC(=O)OC7)CC[C@]65O)C4)O[C@@H]3C)O[C@@H]2C)C[C@H](O)[C@@H]1O [Digitoxin] | 700 | 280 | 280 | – | – | – | – | – | – | – | – | – | – | – | – | – | – | – | –
